Laboratory results published in ChEMBL document CHEMBL3301361, “Experimental in vitro DMPK and physicochemical data on a set of publicly disclosed compounds”.

Experiment: physchem
Settings: octan-1-ol/water, pH 7.4, LogD7.4

SMILES | logD
C/N=C(\S)n1nc(-c2ccc(Cl)cc2)nc1N | 4.12
Fc1cc(F)cc(-c2cc(N(CCCN3CCCCCC3)Cc3ccc4c(c3)OCO4)on2)c1 | 3.84
N#Cc1ccc(-c2csc(Nc3ccc(O)cc3)n2)cc1 | 4.1
O=C(CCCc1ccncc1)N1CCN(c2ccc(Cl)cc2Cl)CC1 | 3.93
CC(C)(C)NC(=O)C(c1ccncc1)N(Cc1ccco1)C(=O)c1ccc(-c2ccccc2)[nH]1 (stereo unspecified) | 4.13
O=S(=O)(Nc1ccc2[nH]c(-c3ccc(Br)o3)nc2c1)c1ccccc1 | 4.38
CCN(c1ccccc1)c1cc(NC)[n+](C)c(C)n1 | -0.91
Nc1nc(-c2ccccc2)nc2c1nc(O)n2Cc1ccccc1 | 4.16
CC(c1ccccc1)C(Cc1nc2ccccc2[nH]1)c1nc2ccccc2[nH]1 (stereo unspecified) | 4.48
Clc1ccc(-c2cn3ccccc3n2)cc1 | 4
CN1CCOc2nc(C#Cc3ccccc3)ccc21 | 3.8
CC[C@H](NC(=O)c1c([S+]([O-])C(C)C)c(-c2ccccc2)nc2ccccc12)c1ccccc1 (stereo partly specified) | 3.81
CC1CC(CN)CC(CO)C1 (stereo unspecified) | -1.4
Cc1ccc(CO)cc1N(C)c1ccnc(Nc2cc(N3CCCCC3)cc(N3CCOCC3)c2)n1 | 4.2
Cc1ccc(CO)cc1N(C)c1ccnc(Nc2cc(N3CCOCC3)nc(N3CCOCC3)n2)n1 | 3.9
CN1CCN(CCCOc2ccc(-c3cc(-c4ccc(F)cc4)no3)cc2)CC1 | 3.81
COc1cc2ncnc(Nc3cc(NC(=O)c4cccc(N(C)C)c4)ccc3Cl)c2cc1OC | 4.26
N#Cc1cccc(C(=O)Nc2cc(-c3ccccc3)nn2-c2ccccc2)c1 | 3.82
Oc1ccc(-c2ccc3cc(O)ccc3c2)cc1 | 4
CN(C)CCCNC(=O)c1nc(Cl)c(N)nc1N | -1
Oc1ccc(C(c2ccc(O)cc2)C(Cl)(Cl)Cl)cc1 | 3.86
O=c1cc(N2CCOCC2)oc2c(-c3cccc4c5c(sc34)CCCC5)cccc12 | 4.1
CC(C)Cn1c(=O)n(C)c(=O)c2c(SCCCO)c(Cc3ccccc3C(F)(F)F)sc21 | 4.05
CC(=O)Nc1ccc2c(c1)c(-c1cc(NC3CC3)n3ncc(C#N)c3n1)cn2CCC(=O)O | -0.87
C[C@@H]1CN(c2noc(C(F)(F)F)n2)CCN1c1ncc(OCc2ccncc2C#N)cn1 | 3.95
Cc1oc(C#N)cc1-c1c2c(=O)n(C)c(=O)n(CC3CC3)c2nn1Cc1ccnc2ccc(Cl)cc12 | 4.26
Cn1ncnc1-c1c2c(=O)n(C)c(=O)n(CC3CC3)c2nn1Cc1ccnc2ccc(Cl)cc12 | 3.8

SMILES | logD
Cn1cncc1-c1c2c(=O)n(CC3CC3)c(=O)n(CC3CC3)c2nn1Cc1ccnc2ccc(Cl)cc12 | 4.33
C#CCn1c(=O)c2c(-c3cc(C#N)cn3C)n(Cc3ccnc4ccc(Cl)cc34)nc2n(CC2CC2)c1=O | 3.96
CCn1c(=O)c2c(-c3cc(C#N)cn3C)n(Cc3ccnc4ccc(Cl)cc34)nc2n(CC2CC2)c1=O | 4.13
C=CCn1c(=O)c2c(-c3cc(C#N)cn3C)n(Cc3ccnc4ccc(Cl)cc34)nc2n(CC2CC2)c1=O | 4.27
C=CCn1c(=O)c2c(-c3nc(C#N)cn3C)n(Cc3ccnc4ccc(Cl)cc34)nc2n(CC2CC2)c1=O | 3.92
CC(C)Cn1c(=O)n(C)c(=O)c2c(-c3cncn3C)n(Cc3cccc4ccccc34)nc21 | 4.1
CC#Cc1ccnc(-c2cccc([C@@]3(c4cc(C)c(=O)n(CC)c4)N=C(N)c4c(F)cccc43)c2)c1 | 4.4
CC(C)N(C(=O)C(c1cccnc1)C(CNC(=O)NCc1ccccc1F)c1ccccc1)C(C)C (stereo unspecified) | 4.2
Oc1nc(S)nc2nc[nH]c12 | -1.48
CC(C)c1ccccc1Nc1nnc(SCc2cccs2)[nH]1 | 4.21
Clc1cccc(Nc2ncnc3ccccc23)c1 | 3.9
O=C1CCC(=O)N1C(CCc1ccncc1)COc1ccc(-c2cccc([N+](=O)[O-])c2)cc1 (stereo unspecified) | 3.88
O=C(C(=O)c1cc(Br)ccc1O)c1cc(Br)ccc1O | 3.85
Cn1c(N)nc(CCc2cccc(-c3ccccc3)c2)cc1=O | 3.8
FC(F)(F)c1cc(COCC(c2cccc(Cl)c2)N2CCNCC2)cc(C(F)(F)F)c1 (stereo unspecified) | 4.2
CC[C@H](NC(=O)c1c(CN(C)C)c(-c2ccccc2)nc2ccccc12)c1ccccc1 | 4.18
Cc1oc(S(C)(=O)=O)cc1-c1c2c(=O)n(C)c(=O)n(CC3CC3)c2nn1Cc1cn(C)c2ccc(Cl)cc12 | 4.48
Oc1ccc2nc(-c3ccccc3)sc2c1 | 3.99
Cc1ccc(NC(=O)c2cccc(C(F)(F)F)c2)cc1NC(=O)c1ccc2ncccc2c1 | 3.87
Brc1cnc(NCc2ccccc2)nc1Nc1cc(C2CC2)n[nH]1 | 4.11
O=c1[nH]ccc2nc(-c3ccc(CN4CCC(c5n[nH]c(-c6ccccn6)n5)CC4)cc3)c(-c3ccccc3)cc12 | 3.9
CC[C@H](NC(=O)c1c(N)c(-c2cccc(F)c2)nc2ccccc12)c1ccccc1 | 4.05
Fc1ccc(CNc2ncc(Br)c(Nc3cc(C4CC4)[nH]n3)n2)cc1 | 4.28
Oc1ccc2[nH]c(CN3CCC(Cc4ccc(F)cc4)CC3)nc2c1 | 3.8
Nc1ccc2[nH]c(Cc3ccc(Oc4ccccc4)cc3)nc2c1 | 3.8
Cn1nc(C(C)(C)C)cc1NC(=O)Nc1ccc(Cl)cc1 | 3.97

Results, then the molecule that gave them:

logD | SMILES
4.21 | O=C(NCC12CC3CC(CC(C3)C1)C2)c1ccccc1
3.9 | CCN(C(=O)NCc1ccc(F)cc1)C1CCN(CCC(c2ccccc2)c2ccccc2)CC1
3.9 | COc1cccc(Nc2nc(NCC3CCCO3)c3ccccc3n2)c1 (stereo unspecified)
4.29 | O=S(=O)(NCC(c1ccccc1)N1CCCCCC1)c1ccc(C(F)(F)F)cc1 (stereo unspecified)
-1.06 | N[C@@H](Cc1ccc(F)cc1)C(=O)O
4.23 | Fc1ccc(C2CCN(C(=S)COCc3ccncc3)CC2)c(Cl)c1
3.79 | Cc1ccc(C(=O)N2CCC(C(=O)c3ccc(Cl)cc3)CC2)cc1
3.83 | O=C(CC12CC3CC(CC(C3)C1)C2)Nc1cccc2ncccc12
4.4 | O=C(Oc1ccccc1O)c1cccc2ccccc12
-0.84 | Cc1ccc(OCC(=O)O)c(-n2nc3ccccc3n2)c1
3.8 | COc1ccc(/C=C2/CCc3ccccc3C2=O)cc1CN1CCOCC1
4.05 | COc1ccc(Cl)cc1C(=O)Nc1nc2ccccc2[nH]1
4.15 | Cc1cc(NC(=O)Nc2ccc(Cl)cc2)n(-c2ccccc2)n1
-1.08 | N#Cc1ccc(OCC(=O)O)c(-c2ccccc2)c1
3.76 | COc1cc(F)ccc1-c1cncc(CNC(=O)c2ccccc2)c1
3.8 | CCCNC(=O)c1nnc2c(-c3ccccc3)cccc2c1N
3.77 | COc1ccc(OC)c(-c2c(F)ccc3c(N)c(C(=O)NC(C)C)nnc23)c1
4 | CCN(C(=O)NCc1ccccc1)C1CCN(CCC(c2ccccc2)c2ccccc2)CC1
4.2 | COc1cc(N2CCN(C(C)=O)CC2)ccc1Nc1ncc(Cl)c(-c2cnc3cc(Cl)ccn23)n1
4.1 | COc1cc(N2CCN(C(C)=O)CC2)ccc1Nc1ncc(Cl)c(-c2cnc3ccc(N(C)C)cn23)n1
4.4 | CC(=O)Nc1cccc(Nc2ncnc(N3CCC(OCc4ccc(OC(F)(F)F)cc4)CC3)n2)c1C
3.9 | CCN(C(=O)Cc1ccc(C#N)cc1)C1CCN(CCC(c2ccccc2)c2ccccc2)CC1
4 | COC(=O)c1ccc(CC(=O)N(C)C2CCN(CCC(c3ccccc3)c3ccccc3)CC2)cc1
4.14 | CCC(NC(=O)c1ccc(C)cc1)c1nc2ccsc2c(=O)n1Cc1ccccc1 (stereo unspecified)
-1.31 | O=C(O)CSc1c[nH]c2ccccc12
-1.01 | COc1ccc(-c2ccccc2)cc1N1CC(=O)NS1(=O)=O
4.06 | O=C(Nc1ccc(C(F)(F)F)c(Cl)c1)N1CCN(C[C@@H]2CCCN(C3CC3)C2)CC1

logD | SMILES
3.92 | COc1ccc(-c2cccc3c(N)c4c(nc23)CN(C2CCC2)C4=O)c(C)n1
4.3 | COc1ncc(-c2cccc3c2C[C@H](NC(=O)c2ccc(OCC(F)(F)F)nc2)CO3)cn1
-1.03 | Cc1cn([C@H]2CCCN(Cc3ccc(C(=O)O)c(Oc4cccc(F)c4)c3)C2)c(=O)[nH]c1=O
4.04 | COc1cc2ncnc(N3CC[C@@H](Oc4cnc5ccccc5n4)C3)c2cc1OC
4.13 | O=C(NCCCNc1nc(Nc2cccc(NC(=O)N3CCCC3)c2)ncc1Br)c1cccs1
3.93 | O=C(NC[C@@H](O)CN1CCC(Oc2ccc(Cl)c(Cl)c2)CC1)c1c[nH]c(=O)c2ccc(F)cc12
4 | O=C(NCc1ccco1)c1ccc2[nH]c(COc3ccc(C45CC6CC(CC(C6)C4)C5)cc3)nc2c1
3.85 | COc1cc(C(=O)Nc2ccc(N3CCOCC3)cc2)nc2c(N3CCN(C)CC3)cc(F)cc12
4.1 | NC1(C(=O)NC(c2ccccc2)c2ccc(Cl)cc2)CCN(c2ncnc3[nH]ccc23)CC1 (stereo unspecified)
-0.87 | Cc1cn([C@H]2CCCN(S(=O)(=O)c3ccc(C(=O)O)c(Oc4ccc(Cl)c(Cl)c4)c3)C2)c(=O)[nH]c1=O
3.75 | C[C@@H]1CN(c2nc(N3CCOC[C@@H]3C)c3ccc(-c4ccccc4)nc3n2)C[C@H](C)O1
4.5 | CC(C)C[C@H](CO)Nc1nc(SCc2ccccc2F)nc2nc(N)sc12
3.8 | CCC[C@H](CO)Nc1nc(SCc2ccccc2)nc2nc(N)sc12
4.3 | CC(C)(C)c1ccc(-c2n[nH]c(NC(=O)c3ccccc3Cl)c2Br)cc1
4.1 | O=C1c2ccccc2CN1C1CCN(CCC(c2ccccc2)c2ccccc2)CC1
4.1 | Clc1cccc(Cl)c1/C(=C/n1cncn1)OC1CCCCCC1
3.97 | CNC(=O)c1cccc(NC(=O)Nc2cccc(C#N)c2)c1CN1CCC(Cc2ccc(F)cc2)CC1
4.43 | COc1ccccc1C(=O)NCC12CC3CC(CC(C3)C1)C2
4.39 | COc1ccc(Cl)c(C(=O)NCC23CC4CC(CC(C4)C2)C3)c1
3.8 | CC(C)Cn1c(=O)n(C)c(=O)c2c(C(=O)N3CCCC3)c(Cc3ccccc3C(F)(F)F)sc21
4.15 | O=C(NCC12CC3CC(CC(C3)C1)C2)c1ccccc1Br
4.13 | Cc1ccc(NC(=O)CCC2CCCCC2)cc1NC(=O)c1ccc(O)cc1
4.37 | O=C(NCC12CC3CC(CC(C3)C1)C2)c1cccc(Cl)c1Cl
4.29 | COc1cccc(NC(=O)c2cccc(Cc3c(C)nn(CCO)c3-c3ccccc3)c2)c1
3.83 | COc1cc(C(=O)Nc2ccc(Cl)c(-c3nc4ccccc4[nH]3)c2)cc(OC)c1OC
3.93 | CC(C)(C)C(=O)NCc1ccc(NC(=O)N2CCCC(O)(c3ccc(Cl)c(Cl)c3)C2)cc1 (stereo unspecified)
